# Measurements: PubChem BioAssay AID342 (DTP/NCI, 2004)
# Where “and” joins values, the source holds several entries; their conditions need not be identical. Identical values can stand only once.
# Test system: Swiss mice, Sarcoma 180 sc, mean tumor weight T/C
# Assay: NCI In Vivo Anticancer Drug Screen. Data for tumor model Sarcoma 180 (subcutaneous) in Swiss mice
# Settings: endpoint: mean tumor weight, higher = larger tumour
# Procedure, shortened: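 Readout is the ratio of treated-group measurement to vehicle-control measurement (T/C), based on survival or tumor size in mice carrying transplanted tumors.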
smiles,measurement,setting,value
C[C@]12CC[C@H](O)CC1=CC[C@@H]1[C@@H]2CC[C@]2(C)c3nc4ccccc4cc3C[C@@H]12,T/C,"dose: 15.6 mg/kg/injection, schedule: Q01DX007 (sc), vehicle: saline",93 % of control
same,T/C,"dose: 62.5 mg/kg/injection, schedule: Q01DX007 (sc), vehicle: saline",57 % of control
same,T/C,"dose: 125.0 mg/kg/injection, schedule: Q01DX007 (sc), vehicle: saline",95 % of control
same,T/C,"dose: 250.0 mg/kg/injection, schedule: Q01DX007 (sc), vehicle: saline",66 % of control
same,T/C,"dose: 500.0 mg/kg/injection, schedule: Q01DX007 (sc), vehicle: saline",93 % of control
CCN(CC)CCNc1ccc(C)c2sc3ccccc3c(=O)c12,T/C,"dose: 4.87 mg/kg/injection, schedule: Q#A X014 (ip), vehicle: carboxymethylcellulose (CMC)",120 % of control
same,T/C,"dose: 7.5 mg/kg/injection, schedule: Q01DX007 (ip), vehicle: carboxymethylcellulose (CMC)",93 % of control
same,T/C,"dose: 9.75 mg/kg/injection, schedule: Q01DX007 (ip), vehicle: carboxymethylcellulose (CMC)",60 % of control
same,T/C,"dose: 9.75 mg/kg/injection, schedule: Q#A X014 (ip), vehicle: carboxymethylcellulose (CMC)",77 % of control
same,T/C,"dose: 12.5 mg/kg/injection, schedule: Q#A X014 (ip), vehicle: carboxymethylcellulose (CMC)",85 % of control
same,T/C,"dose: 15.0 mg/kg/injection, schedule: Q01DX007 (ip), vehicle: carboxymethylcellulose (CMC)",101 % of control
same,T/C,"dose: 19.5 mg/kg/injection, schedule: Q01DX007 (ip), vehicle: carboxymethylcellulose (CMC)",72 % of control
same,T/C,"dose: 19.5 mg/kg/injection, schedule: Q#A X014 (ip), vehicle: carboxymethylcellulose (CMC)",75 % of control
same,T/C,"dose: 25.0 mg/kg/injection, schedule: Q#A X014 (ip), vehicle: carboxymethylcellulose (CMC)",64 % of control
same,T/C,"dose: 30.0 mg/kg/injection, schedule: Q01DX007 (ip), vehicle: carboxymethylcellulose (CMC)",106 % of control
same,T/C,"dose: 31.2 mg/kg/injection, schedule: Q01DX007 (ip), vehicle: carboxymethylcellulose (CMC)",117 % of control
same,T/C,"dose: 39.0 mg/kg/injection, schedule: Q#A X014 (ip), vehicle: carboxymethylcellulose (CMC)",32 % of control
same,T/C,"dose: 50.0 mg/kg/injection, schedule: Q#A X014 (ip), vehicle: carboxymethylcellulose (CMC)",35 % of control
same,T/C,"dose: 52.0 mg/kg/injection, schedule: Q01DX007 (ip), vehicle: carboxymethylcellulose (CMC)",82 % of control
same,T/C,"dose: 60.0 mg/kg/injection, schedule: Q01DX007 (ip), vehicle: carboxymethylcellulose (CMC)",55 % of control
Oc1cc(O)c2c(c1)O[C@H](c1ccc(O)c(O)c1)[C@@H](O)C2,T/C,"dose: 6.25 mg/kg/injection, schedule: Q01DX007 (ip), vehicle: saline",84 % of control
same,T/C,"dose: 12.5 mg/kg/injection, schedule: Q01DX007 (ip), vehicle: saline",99 % of control
same,T/C,"dose: 25.0 mg/kg/injection, schedule: Q01DX007 (ip), vehicle: saline",88 % of control
same,T/C,"dose: 100.0 mg/kg/injection, schedule: Q01DX007 (ip), vehicle: saline",83 % of control
same,T/C,"dose: 200.0 mg/kg/injection, schedule: Q01DX007 (ip), vehicle: saline",87 % of control
same,T/C,"dose: 400.0 mg/kg/injection, schedule: Q01DX007 (ip), vehicle: saline",80 % of control
Cc1cc2c(c3oc(C4(C)OC4C4OC4C)cc(=O)c13)C(=O)c1c(O)c(C3CC(C)(N(C)C)C(O)C(C)O3)cc(C3CC(N(C)C)C(O)C(C)O3)c1C2=O (stereo not given),T/C,"dose: 0.05 mg/kg/injection, schedule: Q01DX007 (sc), vehicle: other",100 % of control
same,T/C,"dose: 0.1 mg/kg/injection, schedule: Q01DX007 (sc), vehicle: other",79 % of control
CC(=O)Nc1c(Cl)cc2c(c1Cl)Cc1cc([N+](=O)[O-])ccc1-2,T/C,"dose: 222.0 mg/kg/injection, schedule: Q01DX007 (ip), vehicle: saline",59 % of control
Nc1nc(SCc2ccccc2)c2ncn(CCCl)c2n1,T/C,"dose: 56.0 mg/kg/injection, schedule: Q01DX007 (ip), vehicle: carboxymethylcellulose (CMC)",36 % of control and 55 % of control
same,T/C,"dose: 83.0 mg/kg/injection, schedule: Q01DX007 (ip), vehicle: carboxymethylcellulose (CMC)",35 % of control and 41 % of control
same,T/C,"dose: 125.0 mg/kg/injection, schedule: Q01DX007 (ip), vehicle: carboxymethylcellulose (CMC)",12 % of control and 18 % of control
COC(=O)C1=COC(C)C2CN3CCc4c([nH]c5cc(OC)ccc45)C3CC12 (stereo not given),T/C,"dose: 50.0 mg/kg/injection, schedule: Q01DX007 (ip), vehicle: other",91 % of control
same,T/C,"dose: 100.0 mg/kg/injection, schedule: Q01DX007 (ip), vehicle: other",89 % of control
same,T/C,"dose: 200.0 mg/kg/injection, schedule: Q01DX007 (ip), vehicle: other",75 % of control
